In article PMC12548400, “Urease promotes pH homeostasis and growth of Staphylococcus aureus in skin-like conditions” (Journal of Bacteriology, 2025):
pIC50: −log10 of the molar value.

Experiments:
S. aureus urease [1] = target: T1, S. aureus urease (Staphylococcus aureus, UniProt P67403); assay: urea hydrolysis in lysates by coupled enzyme assay; activity lost in ureD::Tn mutant and restored by complementation; type: cell-based
T1 construct: gene ureC; native urease in cell lysates of S. aureus LAC (USA300); with UreA, UreB (urease subunits)

S. aureus urease [2] = target: T2, S. aureus urease (Staphylococcus aureus, UniProt Q2FEK3); assay: urease activity in cell-free lysate with […] urea; coupled glutamate dehydrogenase/NADH assay; type: biochemical
T2 construct: gene ureC; native urease in cell-free lysates of S. aureus LAC (USA300); with UreA, UreB (urease subunits)

jack bean urease = target: T3, jack bean urease (Canavalia ensiformis, UniProt P07374); assay: inhibition of purified urease; coupled glutamate dehydrogenase/NADH depletion assay at […] nm; type: biochemical
T3 construct: commercially purified jack bean urease
T3 sequence (P07374 whole entry, looked up): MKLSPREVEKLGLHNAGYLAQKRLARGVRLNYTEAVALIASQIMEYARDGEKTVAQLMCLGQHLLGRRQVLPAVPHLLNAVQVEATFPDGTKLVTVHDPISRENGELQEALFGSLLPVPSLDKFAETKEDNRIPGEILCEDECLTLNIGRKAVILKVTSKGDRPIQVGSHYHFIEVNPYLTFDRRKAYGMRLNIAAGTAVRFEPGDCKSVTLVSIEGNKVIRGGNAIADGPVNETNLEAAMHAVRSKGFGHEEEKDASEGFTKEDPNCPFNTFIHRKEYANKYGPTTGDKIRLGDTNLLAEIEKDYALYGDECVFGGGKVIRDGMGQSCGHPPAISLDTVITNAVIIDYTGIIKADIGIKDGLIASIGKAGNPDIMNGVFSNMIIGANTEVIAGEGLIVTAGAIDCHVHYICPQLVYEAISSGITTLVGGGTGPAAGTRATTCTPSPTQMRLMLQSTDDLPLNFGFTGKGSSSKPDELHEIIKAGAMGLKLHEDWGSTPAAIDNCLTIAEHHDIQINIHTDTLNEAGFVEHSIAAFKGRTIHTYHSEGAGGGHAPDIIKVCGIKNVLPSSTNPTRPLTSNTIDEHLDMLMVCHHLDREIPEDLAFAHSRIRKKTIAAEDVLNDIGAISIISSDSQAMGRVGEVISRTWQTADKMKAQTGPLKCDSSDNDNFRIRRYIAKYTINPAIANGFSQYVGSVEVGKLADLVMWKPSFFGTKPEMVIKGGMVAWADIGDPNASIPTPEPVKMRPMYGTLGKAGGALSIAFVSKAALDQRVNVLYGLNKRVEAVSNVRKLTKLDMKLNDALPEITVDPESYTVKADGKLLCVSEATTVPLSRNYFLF

T2 sequence (Q2FEK4 whole entry): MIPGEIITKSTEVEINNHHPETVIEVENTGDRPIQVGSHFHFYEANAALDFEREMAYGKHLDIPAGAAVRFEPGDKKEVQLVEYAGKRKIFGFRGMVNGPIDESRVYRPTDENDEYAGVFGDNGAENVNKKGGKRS
T2 sequence (Q2FEK3 whole entry): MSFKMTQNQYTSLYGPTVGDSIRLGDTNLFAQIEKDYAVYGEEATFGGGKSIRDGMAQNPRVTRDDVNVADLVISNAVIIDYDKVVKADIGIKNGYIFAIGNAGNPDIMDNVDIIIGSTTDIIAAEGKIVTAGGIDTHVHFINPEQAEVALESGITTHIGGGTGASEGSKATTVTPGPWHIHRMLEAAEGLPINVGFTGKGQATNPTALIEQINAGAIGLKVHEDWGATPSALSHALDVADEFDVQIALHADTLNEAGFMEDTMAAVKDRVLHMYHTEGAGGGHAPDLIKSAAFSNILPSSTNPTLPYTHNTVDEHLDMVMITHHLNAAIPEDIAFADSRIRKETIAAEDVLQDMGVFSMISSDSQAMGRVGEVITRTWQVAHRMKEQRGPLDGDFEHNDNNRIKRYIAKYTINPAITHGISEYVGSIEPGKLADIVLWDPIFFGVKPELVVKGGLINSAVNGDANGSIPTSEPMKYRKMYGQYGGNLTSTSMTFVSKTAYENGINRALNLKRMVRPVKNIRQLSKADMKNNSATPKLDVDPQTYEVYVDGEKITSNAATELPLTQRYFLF
T2 sequence (Q2FEK5 whole entry, further chain): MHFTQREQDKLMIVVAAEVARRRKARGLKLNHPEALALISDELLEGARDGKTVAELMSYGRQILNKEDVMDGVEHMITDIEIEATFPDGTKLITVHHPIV
T1 sequence (P67403 whole entry): as the sequence (Q2FEK3 whole entry) above

## NC(N)=O [urea]
S. aureus urease [1]
  urea hydrolysis in lysates by coupled enzyme assay; activity lost in ureD::Tn mu: loss of urease activity in the mutant strain and reconstitution of activity in the complementation strain using a coupled enzyme assay

## NP(N)(=O)NC(=O)c1ccc(F)cc1 [FF, N-(diaminophosphinyl)-4-fluorobenzenamide]
S. aureus urease [2]
  pIC50: 7.47
Jack bean urease
  pIC50: 6.88
